Results on five compounds are retold here after paper PMC3509320 (Journal of medicinal chemistry, 2012).

Structures are written as SMILES.

Data set [1] addresses 5-HT4R (Rattus norvegicus, UniProt Q62758). As to the kind of experiment: In vitro autoradiographic competition with [125I]1 on rat brain sections. It is filed as binding.
In data set [2] the target is 5-HT4R (Mus musculus, UniProt P97288). As to the kind of experiment: In vivo competition with [125I]1, ex vivo autoradiography of mouse brain.
5-HT4R (Mus musculus, UniProt P97288), sequence (P97288 whole entry): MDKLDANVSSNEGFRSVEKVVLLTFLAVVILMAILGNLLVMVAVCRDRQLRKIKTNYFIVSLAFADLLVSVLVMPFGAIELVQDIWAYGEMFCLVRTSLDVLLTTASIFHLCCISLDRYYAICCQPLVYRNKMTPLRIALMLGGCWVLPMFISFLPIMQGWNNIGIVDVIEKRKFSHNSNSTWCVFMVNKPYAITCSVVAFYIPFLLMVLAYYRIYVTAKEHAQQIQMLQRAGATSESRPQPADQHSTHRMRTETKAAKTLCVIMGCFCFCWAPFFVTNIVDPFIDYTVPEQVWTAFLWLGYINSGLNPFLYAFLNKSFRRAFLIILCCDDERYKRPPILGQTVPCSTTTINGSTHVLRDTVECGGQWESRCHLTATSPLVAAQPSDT
A further data set has as its target h5-HT4 (Homo sapiens, UniProt Q13639). Briefly: 5-HT4R intrinsic activity functional assay. The note with it: h5-HT4, functional assay at CEREP.
The conditions of data set [3]: SPECT tracer ref 19; cited from earlier work.

h5-HT4, sequence (Q13639 whole entry): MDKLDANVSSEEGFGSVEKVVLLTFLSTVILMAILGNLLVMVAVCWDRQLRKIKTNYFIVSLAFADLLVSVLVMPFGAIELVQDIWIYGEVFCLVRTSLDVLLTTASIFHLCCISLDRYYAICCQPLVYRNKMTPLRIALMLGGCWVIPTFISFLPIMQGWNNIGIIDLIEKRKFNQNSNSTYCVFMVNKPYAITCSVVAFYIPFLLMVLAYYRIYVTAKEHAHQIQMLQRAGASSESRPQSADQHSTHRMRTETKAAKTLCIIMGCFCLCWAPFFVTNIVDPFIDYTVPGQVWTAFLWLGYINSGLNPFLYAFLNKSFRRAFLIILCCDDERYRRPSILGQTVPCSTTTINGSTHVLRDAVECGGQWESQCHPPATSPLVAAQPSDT
5-HT4R (Rattus norvegicus, UniProt Q62758), sequence (Q62758 whole entry): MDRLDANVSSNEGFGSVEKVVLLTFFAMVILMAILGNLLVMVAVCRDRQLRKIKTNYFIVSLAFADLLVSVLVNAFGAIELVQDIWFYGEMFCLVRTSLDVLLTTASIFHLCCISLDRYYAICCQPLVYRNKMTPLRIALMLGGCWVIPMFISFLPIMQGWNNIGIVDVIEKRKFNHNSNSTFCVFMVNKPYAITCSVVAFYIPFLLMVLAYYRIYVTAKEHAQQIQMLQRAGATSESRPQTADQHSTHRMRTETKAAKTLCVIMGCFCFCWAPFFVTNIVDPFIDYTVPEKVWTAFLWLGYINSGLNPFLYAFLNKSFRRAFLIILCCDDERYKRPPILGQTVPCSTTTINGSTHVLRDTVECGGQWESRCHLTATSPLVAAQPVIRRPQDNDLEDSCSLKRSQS

As to `Fc1cccc2c1nc(OCC1CCN(CCCc3ccc(I)cc3)CC1)c1cccnc12` [Compound 11d, 7-Fluoro-5-{1-[3-(4-iodophenyl)propyl]piperidin-4-yl}methyloxybenzo[h]-1,6-naphthyridine], the “5-HT4R-specific [125I]1 radioactivity in autoradiograms” value was “decrease in the 5-HT4R-specific radioactivity” at 5-HT4R [1] (10 pM of 11d with 100 pM [125I]1, rat brain sections) and “almost complete abolishment of the signal” at 5-HT4R [1] (1 nM of 11d with 100 pM [125I]1, rat brain sections). The “blood brain barrier crossing” value on 5-HT4R [2] (i.v. 50 µg/kg) is reported as “able to cross the blood brain barrier”. For the same compound, the “specific binding of [125I]1 ex vivo” value on 5-HT4R [2] (i.v. co-injection of 50 µg/kg 11d, compared to [125I]1 alone) is “markedly reduced”. Besides, the “efficacy (intrinsic activity)” value on h5-HT4 is “full antagonists”.
In the case of `CCCCN1CCC(COC(=O)c2cc([123I])c(N)c3c2OCCO3)CC1` [[^123I]1, (1-butylpiperidin-4-yl)methyl-8-amino-7-iodo[^123I]-2,3-dihydrobenzo[b][1,4]dioxine-5-carboxylate], in data set [3], the brain penetration result was “low brain penetration” and the metabolism entry is “rapid metabolism”.
For the compound `CCCN1CCC(COc2nc3c(I)cccc3c3ccccc23)CC1` [Compound 11a, 4-Iodo-6-(1-propylpiperidin-4-yl)methyloxyphenanthridine], the “efficacy (intrinsic activity)” value on h5-HT4 is on record as “full antagonists”.
Regarding `CCCN1CCC(COc2nc3c(F)cccc3c3ncccc23)CC1` [Compound 4v, 7-Fluoro-5-(1-propylpiperidin-4-yl)methyloxybenzo[h]-1,6-naphthyridine], the “efficacy (intrinsic activity)” value on h5-HT4 was “full antagonists”.
For `CCCN1CCC(COc2nc3c(I)cccc3c3ncccc23)CC1` [Compound 11b, 7-Iodo-5-(1-propylpiperidin-4-yl)methyloxybenzo[h]-1,6-naphthyridine], the “efficacy (intrinsic activity)” value at h5-HT4 is on record as “full antagonists”.
